# Like-named read-outs stand apart in the source and are kept apart here.
# Experiments:
# [1] = biological target: T1, Glucocorticoid Receptor (GR) (Homo sapiens, UniProt P04150); assay: GR Fluorescence Polarization Assay (PolarScreen Glucocorticoid Receptor Competitor Assay, Red); details: fluorescence polarization binding ranges
# T1 construct: purchased Invitrogen P2893
# T1 sequence (P04150 1-777): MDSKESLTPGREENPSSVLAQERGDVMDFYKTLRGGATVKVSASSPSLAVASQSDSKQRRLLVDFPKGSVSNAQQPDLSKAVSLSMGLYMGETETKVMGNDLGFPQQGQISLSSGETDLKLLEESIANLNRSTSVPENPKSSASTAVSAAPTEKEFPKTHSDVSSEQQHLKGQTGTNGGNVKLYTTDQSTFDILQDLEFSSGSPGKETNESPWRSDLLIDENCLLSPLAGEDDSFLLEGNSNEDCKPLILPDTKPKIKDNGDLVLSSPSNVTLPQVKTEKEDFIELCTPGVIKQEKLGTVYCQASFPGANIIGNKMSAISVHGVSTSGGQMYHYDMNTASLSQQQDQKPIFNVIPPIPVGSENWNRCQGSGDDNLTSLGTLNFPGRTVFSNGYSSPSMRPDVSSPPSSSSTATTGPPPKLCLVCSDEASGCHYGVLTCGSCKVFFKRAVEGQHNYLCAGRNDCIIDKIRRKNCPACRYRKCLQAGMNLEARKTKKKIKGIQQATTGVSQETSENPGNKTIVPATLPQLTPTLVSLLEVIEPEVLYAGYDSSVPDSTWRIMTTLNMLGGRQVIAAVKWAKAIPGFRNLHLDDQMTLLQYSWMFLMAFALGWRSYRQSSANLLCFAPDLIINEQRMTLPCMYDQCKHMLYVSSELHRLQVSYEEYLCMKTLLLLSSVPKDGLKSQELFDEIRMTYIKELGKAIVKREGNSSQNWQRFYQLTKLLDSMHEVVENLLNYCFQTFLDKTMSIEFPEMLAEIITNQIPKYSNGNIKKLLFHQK
# In short: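 Compound displacement of a red-labelled glucocorticoid from GR, read as fluorescence polarization. Tracer, receptor and 1:4-serially diluted compound were left together overnight at 4° C in the kit assay buffer.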
# IL-6 = assay: A549 Cell Assay to Measure Inflammation Markers (inhibition of IL-1β-induced IL-6); type: cell-based; details: A549 cells, read-out: A549 cell assay
# In short: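 A549 cells pre-incubated 1 h with compound (10-point dilution, 0.1% DMSO final) in charcoal-stripped serum medium, then stimulated 4 h with 1 ng/mL IL-1β at 37° C. Supernatant IL-6 measured by MSD immunoassay; IC50 and Emax relative to 1 μM prednisolone as 100% inhibition; viability checked by CellTiter-Glo.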
compound,measurement,setting,value
Cc1cc(-n2ncc3cc4c(cc32)CCC[C@H]2C[C@](C)(O)CC[C@@]42Cc2ccccn2)ccn1 [Example 60],IC50,[1],< 100 nM
same,IC50,IL-6,< 100 nM
N#CC[C@@]1(O)CC[C@@]2(Cc3ncccn3)c3cc4cnn(-c5ccc(F)cc5)c4cc3CCC[C@H]2C1 [Example 62],IC50,[1],< 100 nM
same,IC50,IL-6,< 100 nM
N#CC[C@]1(O)CC[C@]2(Cc3ncccn3)c3cc4cnn(-c5ccc(F)cc5)c4cc3CCC[C@@H]2C1 [Example 63],IC50,[1],< 100 nM
same,IC50,IL-6,< 100 nM
CC[C@]12CC[C@@](O)(CC#N)C[C@H]1CCCc1cc3c(cnn3-c3ccc(F)cc3)cc12 [Example 64],IC50,[1],< 100 nM
same,IC50,IL-6,< 100 nM
CC[C@@]12CC[C@](O)(CC#N)C[C@@H]1CCCc1cc3c(cnn3-c3ccc(F)cc3)cc12 [Example 65],IC50,[1],< 100 nM
same,IC50,IL-6,< 100 nM
N#CC[C@]1(O)CC[C@]2(CC3CC3)c3cc4cnn(-c5ccc(F)cc5)c4cc3CCC[C@@H]2C1 [Example 66],IC50,[1],< 100 nM
same,IC50,IL-6,< 100 nM
N#CC[C@@]1(O)CC[C@@]2(CC3CC3)c3cc4cnn(-c5ccc(F)cc5)c4cc3CCC[C@H]2C1 [Example 67],IC50,[1],< 100 nM
same,IC50,IL-6,< 100 nM
N#CC[C@@]1(O)CC[C@@]2(Cc3ccccn3)c3cc4cnn(-c5ccncc5)c4cc3CCC[C@H]2C1 [Example 68],IC50,[1],< 100 nM
same,IC50,IL-6,< 100 nM
N#CC[C@]1(O)CC[C@]2(Cc3ccccn3)c3cc4cnn(-c5ccncc5)c4cc3CCC[C@@H]2C1 [Example 69],IC50,[1],< 100 nM
same,IC50,IL-6,< 100 nM
"CS(=O)(=O)NC[C@@]12CC[C@](O)(C(F)(F)F)C[C@H]1CCCc1cc3c(cnn3-c3ccc(F)cc3)cc12 [Example 74, N-(((3R,4aR,12bS)-9-(4-fluorophenyl)-3-hydroxy-3-(trifluoromethyl)-1,2,3,4,4a,5,6,7,9,12b-decahydrobenzo[6,7]cyclohepta[1,2-f]indazol-12b-yl)methyl)methanesulfonamide]",IC50,[1],< 100 nM
same,IC50,IL-6; Homo sapiens,< 100 nM
"O=S1(=O)CCCN1C[C@@]12CC[C@](O)(C(F)(F)F)C[C@H]1CCCc1cc3c(cnn3-c3ccc(F)cc3)cc12 [Example 75, 2-(((3R,4aR,12bS)-9-(4-fluorophenyl)-3-hydroxy-3-(trifluoromethyl)-1,2,3,4,4a,5,6,7,9,12b-decahydrobenzo[6,7]cyclohepta[1,2-f]indazol-12b-yl)methyl)isothiazolidine 1,1-dioxide]",IC50,[1],< 100 nM
same,IC50,IL-6; Homo sapiens,< 100 nM
"OC[C@@]12CC[C@](O)(C(F)(F)F)C[C@H]1CCCc1cc3c(cnn3-c3ccc(F)cc3)cc12 [Example 78, (3R,4aR,12bS)-9-(4-fluorophenyl)-12b-(hydroxymethyl)-3-(trifluoromethyl)-1,2,3,4,4a,5,6,7,9,12b-decahydrobenzo[6,7]cyclohepta[1,2-f]indazol-3-ol]",IC50,[1],< 100 nM
same,IC50,IL-6; Homo sapiens,< 100 nM
OC[C@]12CC[C@@](O)(C(F)(F)F)C[C@@H]1CCCc1cc3c(cnn3-c3ccc(F)cc3)cc12 [Example 79],IC50,[1],< 100 nM
same,IC50,IL-6,100 to 1000 nM
"CC[C@]12CC[C@](O)(C(F)(F)F)C[C@H]1CCCc1c2cc2cnn(-c3ccc(F)cc3)c2c1Br [Example 92, (3R,4aR,12bS)-8-Bromo-12b-ethyl-9-(4-fluorophenyl)-3-(trifluoromethyl)-1,2,3,4,4a,5,6,7,9,12b-decahydrobenzo[6,7]cyclohepta[1,2-f]indazol-3-ol]",IC50,[1],100 to 1000 nM
same,IC50,IL-6; Homo sapiens,> 10000 nM
"CC[C@]12CC[C@](O)(C(F)(F)F)C[C@H]1CC=Cc1cc3c(cnn3-c3ccc(F)cc3)cc12 [Example 93, (3R,4aR,12bS)-12b-Ethyl-9-(4-fluorophenyl)-3-(trifluoromethyl)-1,2,3,4,4a,5,9,12b-octahydrobenzo[6,7]cyclohepta[1,2-f]indazol-3-ol]",IC50,[1],< 100 nM
same,IC50,IL-6; Homo sapiens,> 10000 nM
"CC[C@@]1(O)CC[C@@]2(Cc3ccccn3)c3cc4cnn(-c5ccc(F)cc5)c4cc3C(=O)CC[C@H]2C1 [Example 94, (3R,4aS,12bS)-3-Ethyl-9-(4-fluorophenyl)-3-hydroxy-12b-(pyridin-2-ylmethyl)-1,2,3,4,4a,5,6,12b-octahydrobenzo[6,7]cyclohepta[1,2-f]indazol-7(9H)-one]",IC50,[1],< 100 nM
same,IC50,IL-6; Homo sapiens,< 100 nM
"CC[C@@]12CC[C@](O)(C(F)(F)F)C[C@H]1CCCc1c2cc2cnn(-c3ccc(F)cc3)c2c1Br [Example 102, (3R,4aR,12bR)-8-Bromo-12b-ethyl-9-(4-fluorophenyl)-3-(trifluoromethyl)-1,2,3,4,4a,5,6,7,9,12b-decahydrobenzo[6,7]cyclohepta[1,2-f]indazol-3-ol]",IC50,[1],< 100 nM
same,IC50,IL-6; Homo sapiens,< 100 nM
"CC[C@@]12CC[C@](O)(C(F)(F)F)C[C@H]1CCCc1c2cc2cnn(-c3ccc(F)cc3)c2c1C [Example 103, (3R,4aR,12bR)-12b-Ethyl-9-(4-fluorophenyl)-8-methyl-3-(trifluoromethyl)-1,2,3,4,4a,5,6,7,9,12b-decahydrobenzo[6,7]cyclohepta[1,2-f]indazol-3-ol]",IC50,[1],< 100 nM
same,IC50,IL-6; Homo sapiens,< 100 nM
"CC[C@@]12CC[C@](O)(C(F)(F)F)C[C@H]1CCC(=O)c1cc3c(cnn3-c3ccc(F)cc3)cc12 [Example 105, (3R,4aR,12bR)-12b-Ethyl-9-(4-fluorophenyl)-3-hydroxy-3-(trifluoromethyl)-1,2,3,4,4a,5,6,12b-octahydrobenzo[6,7]cyclohepta[1,2-f]indazol-7(9H)-one]",IC50,[1],< 100 nM
same,IC50,IL-6; Homo sapiens,< 100 nM
"CC[C@@]12C[C@H](O)[C@@](O)(C(F)(F)F)C[C@H]1CCCc1cc3c(cnn3-c3ccc(F)cc3)cc12 [Example 108, (2S,3R,4aR,12bR)-12b-Ethyl-9-(4-fluorophenyl)-3-(trifluoromethyl)-1,2,3,4,4a,5,6,7,9,12b-decahydrobenzo[6,7]cyclohepta[1,2-f]indazole-2,3-diol]",IC50,[1],< 100 nM
same,IC50,IL-6; Homo sapiens,< 100 nM
CC#C[C@@]1(O)CC[C@@]2(CC)c3cc4cnn(-c5ccc(F)cc5)c4cc3CCC[C@@H]2C1 [Example 111],IC50,[1],< 100 nM
same,IC50,IL-6,< 100 nM
CC#C[C@]1(O)CC[C@]2(CC)c3cc4cnn(-c5ccc(F)cc5)c4cc3CCC[C@H]2C1 [Example 112],IC50,[1],100 to 1000 nM
same,IC50,IL-6,< 100 nM
"CC[C@@]1(O)CC[C@@]2(CC)c3cc4cnn(-c5ccc(F)cc5)c4cc3CCC[C@@H]2C1 [Example 113, (3R,4aR,12bR)-3,12b-Diethyl-9-(4-fluorophenyl)-1,2,3,4,4a,5,6,7,9,12b-decahydrobenzo[6,7]cyclohepta[1,2-f]indazol-3-ol]",IC50,[1],< 100 nM
same,IC50,IL-6; Homo sapiens,< 100 nM
CC[C@]1(O)CC[C@]2(CC)c3cc4cnn(-c5ccc(F)cc5)c4cc3CCC[C@H]2C1 [Example 114],IC50,[1],100 to 1000 nM
same,IC50,IL-6,100 to 1000 nM
"CC[C@]12CC[C@](O)(CN[C@H](C)c3ccccc3)C[C@@H]1CCCc1cc3c(cnn3-c3ccc(F)cc3)cc12 [Example 125, (3R,4aS,12bS)-12b-ethyl-9-(4-fluorophenyl)-3-((((R)-1-phenylethyl)amino)methyl)-1,2,3,4,4a,5,6,7,9,12b-decahydrobenzo[6,7]cyclohepta[1,2-f]indazol-3-ol]",IC50,[1],100 to 1000 nM
same,IC50,IL-6; Homo sapiens,> 10000 nM
"CC[C@@]12CC[C@@](O)(CN[C@H](C)c3ccccc3)C[C@H]1CCCc1cc3c(cnn3-c3ccc(F)cc3)cc12 [Example 126, (3S,4aR,12bR)-12b-ethyl-9-(4-fluorophenyl)-3-((((R)-1-phenylethyl)amino)methyl)-1,2,3,4,4a,5,6,7,9,12b-decahydrobenzo[6,7]cyclohepta[1,2-f]indazol-3-ol]",IC50,[1],< 100 nM
same,IC50,IL-6; Homo sapiens,> 10000 nM

# — patent US9193744B2, “Heterocyclic nuclear hormone receptor modulators” (AbbVie Inc., priority 2012, dated 2015)
